Reference: patent US7799775B2, “Pyrimidine derivatives” (ASKA Pharmaceutical Co., Ltd., priority 2004, dated 2010)

Key:
human 5-HT3 receptor = target: T1, human 5-HT3 receptor (Homo sapiens, UniProt P46098); assay: Measurement of affinity to human 5-HT3 receptor (in vitro), [3H]BRL-43694 binding; settings: test compound 100 nmols/L; [3H]BRL-43694 0.5 nmols/L; HEK-293 cell membrane expressing human 5-HT3 receptor; read-out: Percent Inhibition (%) on Each Receptor's Binding at 10^−7M, 5-HT3
T1 construct: purchased BIOLINKS K.K; host or cells: HEK-293 cells (membrane preparation)
T1 sequence (P46098 24-478): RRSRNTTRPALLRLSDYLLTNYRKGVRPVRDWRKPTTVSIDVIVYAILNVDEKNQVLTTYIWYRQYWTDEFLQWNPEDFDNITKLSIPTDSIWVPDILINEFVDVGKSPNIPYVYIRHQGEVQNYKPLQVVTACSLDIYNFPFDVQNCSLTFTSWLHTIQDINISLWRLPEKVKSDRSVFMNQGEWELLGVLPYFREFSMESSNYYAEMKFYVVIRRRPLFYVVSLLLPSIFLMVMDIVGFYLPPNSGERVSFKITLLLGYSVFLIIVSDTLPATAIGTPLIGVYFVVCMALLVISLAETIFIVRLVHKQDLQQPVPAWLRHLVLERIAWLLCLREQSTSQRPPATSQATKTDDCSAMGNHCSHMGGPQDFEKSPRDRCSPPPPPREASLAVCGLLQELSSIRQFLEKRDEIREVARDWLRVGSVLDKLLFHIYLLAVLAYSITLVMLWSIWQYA
Experimental: (2) Measurement of Affinity of Each Test Compound to Human 5-HT3 Receptor (in Vitro):
HEK-293 cell membrane sample in which human 5-HT3 receptor was expressed (purchased from BIOLINKS K.K.) 0.05 mL (about 50 microassay) was added to 24.95 mL of incubation buffer solution B (an aqueous solution of a mixture of 50 mmols/L of Tris-hydrochloric acid, 5 mmols/L of magnesium chloride and 1 mmol/L of EDTA, whose pH was adjusted to 7.5 at 25° C. with 1N-aqueous sodium hydroxide solution) and homogenized, to provide a membrane sample suspension B. Separately, each test compound was made into 270 μmols/L of DMSO solution and diluted to a prescribed concentration with the incubation buffer solution B to provide a compound solution.
A piece of polypropylene tube was charged with 20 μL of [^3H]BRL-43694 (purchased from Daiichi Pure Chemicals Co., Ltd.) (The concentration of [^3H]BRL-43694 had been advancedly adjusted to render its concentration in the reaction mixture to 0.5 nmols/L.) and 20 μL of one of the compound solutions. Further 500 μL of the membrane sample suspension B was added into the tube, followed by 60 minutes' incubation at 25° C. The reaction was terminated by rapid filtration of the reaction mixture through GF/B filter which had been advancedly immersed in a solution formed by adding to the incubation buffer solution B polyethyleneimine to a concentration of 0.5%, using Brandel cell harvester. Then the filter was washed with about 5 mL of 50 mmols/L of Tris-hydrochloric acid which had been cooled to 4° C. The filter was once again washed after similar operation.
(§1) Residual radioactivity on the filter was measured with liquid scintillation counter (ALOKA CO., LTD. LSC-5100). Percent inhibition (%) of each test compound to binding of [^3H]BRL-43694 to 5-HT3 receptor at a concentration of 0.5 nmols/L, i.e., affinity of each test compound to 5-HT3 receptor, can be calculated according to the following expression. The ratio of non-specific binding was calculated by measuring the radioactivity in case of using tropisetron: (ICS 205-930) at a concentration of 10 μmols/L, with which value the measured value of each test compound was compensated.
(§2) Affinity of each test compound to 5-HT1A receptor and 5-HT3 receptor at a concentration of 100 nmols/L were as shown in the following Tables A-1 and A-2. BRL-43694 and tropisetron (ICS 205-930), which were used in measuring affinity of those compounds to 5-HT3 receptor, have the following structures: […]

human 5-HT1A receptor = target: T2, human 5-HT1A receptor (Homo sapiens, UniProt P08908); assay: Affinity measurement of the compounds to human 5-HT1A receptor (in vitro), [3H]8-OH-DPAT binding; settings: test compound 100 nmols/L; [3H]8-OH-DPAT 0.25 nmols/L; CHO cell membrane expressing human 5-HT1A receptor; read-out: Percent Inhibition (%) on Each Receptor's Binding at 10^−7M, 5-HT1A
T2 construct: purchased Packard Bioscience; host or cells: CHO cells (membrane preparation)
T2 sequence (P08908 1-422): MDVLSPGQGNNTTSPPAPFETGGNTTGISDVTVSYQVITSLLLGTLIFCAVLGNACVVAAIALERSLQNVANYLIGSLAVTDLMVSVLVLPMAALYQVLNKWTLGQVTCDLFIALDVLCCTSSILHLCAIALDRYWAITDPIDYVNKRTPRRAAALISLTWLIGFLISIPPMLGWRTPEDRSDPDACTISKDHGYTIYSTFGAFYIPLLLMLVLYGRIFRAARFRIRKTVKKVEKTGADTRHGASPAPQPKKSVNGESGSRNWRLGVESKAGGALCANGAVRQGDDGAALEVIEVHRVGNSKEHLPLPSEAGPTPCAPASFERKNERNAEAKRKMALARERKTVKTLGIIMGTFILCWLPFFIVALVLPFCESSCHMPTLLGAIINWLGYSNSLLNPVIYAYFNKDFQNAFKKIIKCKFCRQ
Experimental: (1) Affinity Measurement of the Compounds to Human 5-HT1A Receptor (in Vitro)
CHO cell membrane sample in which human 5-HT1A receptor was expressed (purchased from Packard Bioscience) 0.25 mL (about 50 units) was added to 24.75 mL of incubation buffer solution A (an aqueous solution of a mixture of 50 mmols/L of Tris-hydrochloric acid, 10 mmols/L of magnesium sulfate, 0.5 mmols/L of EDTA and 0.1% ascorbic acid, whose pH was adjusted to 7.4 at 27° C. with 1N-aqueous sodium hydroxide solution), and labeled as membrane sample suspension A. Separately, each test compound was made into 270 μmols/L DMSO solution and diluted to a prescribed concentration with the incubation buffer solution A, to provide a compound solution.
A piece of polypropylene tube was charged with 20 μL of [^3H]8-OH-DPAT (8-hydroxy-2-(di-n-propylamino)tetralin; purchased from Daiichi Pure Chemicals Co., Ltd.) (The concentration of the [^3H]8-OH-DPAT had been advancedly adjusted to render its concentration in the reaction mixture to 0.25 nmols/L) and 20 μL of one of the compound solutions. Further 500 μL of the membrane sample suspension A was added into the tube, followed by 60 minutes' incubation at 27° C. The reaction was terminated by rapid filtration of the reaction mixture through GF/C filter which had been advancedly immersed in a solution formed by adding to the incubation buffer solution A polyethyleneimine to a concentration of 0.3%, using Brandel cell harvester. Then the filter was washed with about 5 mL of 50 mmols/L of Tris-hydrochloric acid which had been cooled to 4° C. The filter was once again washed after similar operation.
as §1, with “(Aloka Co.,” for “(ALOKA CO., LTD.”, “[^3H]8-OH-DPAT” for “[^3H]BRL-43694”, “5-HT1A” for “5-HT3”, “0.25” for “0.5”, “8-OH-DPAT” for “tropisetron: (ICS 205-930)”
as §2

Q: `CCN1CCN(c2nccc3ccsc23)CC1` [Production Example 17, 7-(4-ethylpiperazin-1-yl)-thieno[2,3-c]pyridine] was tested. Which inhibition at 0.1 µM (human 5-HT3 receptor) did it give?
A: 82.9%

Q: What about the inhibition at 0.1 µM (human 5-HT1A receptor) of the same compound?
A: 83.6%

Q: Which inhibition at 0.1 µM (human 5-HT3 receptor) does the source give for `Cn1c(CCCN2CCN(c3ccc4ccccc4n3)CC2)nc2c(c1=O)CCCC2` [Example 7-5, 3-methyl-2-[3-(4-quinolin-2-ylpiperazin-1-yl)propyl]-5,6,7,8-tetrahydro-3H-quinazolin-4-one] here?
A: 6.3%

Q: And the inhibition at 0.1 µM (human 5-HT1A receptor)?
A: 53%

Q: What does the source list for `NNc1cccc2nc(CCCCN3CCN(c4ccc5ccccc5n4)CC3)n(N)c(=O)c12` [Example 4-28, 3-amino-5-hydrazino-2-[4-(4-quinolin-2-ylpiperazin-1-yl)butyl]-3H-quinazolin-4-one]?
A: inhibition at 0.1 µM (human 5-HT3 receptor): 45.1%; inhibition at 0.1 µM (human 5-HT1A receptor): 97.6%

Q: Which results are given for `Cc1sc2nc(SCCCN3CCN(c4ccc5ccccc5n4)CC3)n(N)c(=O)c2c1C` [Example 1-1, 3-amino-5,6-dimethyl-2-[3-(4-quinolin-2-ylpiperazin-1-yl)-propylthio]-3H-thieno[2,3-d]pyrimidin-4-one]?
A: inhibition at 0.1 µM (human 5-HT3 receptor): 94%; inhibition at 0.1 µM (human 5-HT1A receptor): 94.5%

Q: With `Nn1c(CCCCN2CCN(c3ccc4ccccc4n3)CC2)nc2c(c1=O)CC(O)CC2` (stereo not drawn) [Example 4-70, 3-amino-6-hydroxy-2-[4-(4-quinolin-2-ylpiperazin-1-yl)butyl]-5,6,7,8-tetrahydro-3H-quinazolin-4-one] as the compound, how does the inhibition at 0.1 µM (human 5-HT3 receptor) read?
A: 92.5%

Q: What about the inhibition at 0.1 µM (human 5-HT1A receptor) of the same compound?
A: 96.1%

Q: `Cn1c(CCCCN2CCN(c3ccc4ccccc4n3)CC2)nc2c(cnn2C)c1=O` [Example 7-19, 1,5-dimethyl-6-[4-(4-quinolin-2-ylpiperazin-1-yl)butyl]-1,5-dihydropyrazolo[3,4-d]pyrimidin-4-one] was tested. Which inhibition at 0.1 µM (human 5-HT3 receptor) did it give?
A: 7.4%

Q: What about the inhibition at 0.1 µM (human 5-HT1A receptor) of the same compound?
A: 85%

Q: Which results are given for `Nn1c(NCCCN2CCN(c3ccc4ccccc4n3)CC2)nc2c(c1=O)CCCC2` [Example 6-2, 3-amino-2-[3-(4-quinolin-2-ylpiperazin-1-yl)propylamino]-5,6,7,8-tetrahydro-3H-quinazolin-4-one]?
A: inhibition at 0.1 µM (human 5-HT3 receptor): 39.3%; inhibition at 0.1 µM (human 5-HT1A receptor): 92.4%

Q: What does the source list for `CCN1CCN(c2nccc3ccccc23)CC1` [Production Example 37, 1-(4-ethylpiperazin-1-yl)isoquinoline]?
A: inhibition at 0.1 µM (human 5-HT3 receptor): 70.2%; inhibition at 0.1 µM (human 5-HT1A receptor): 57.3%

Q: How did the inhibition at 0.1 µM (human 5-HT3 receptor) turn out when `O=c1[nH]c(SCCCN2CCN(c3ccc4ccccc4n3)CC2)nc2ccsc12` [Example 2-12, 2-[3-(4-quinolin-2-ylpiperazin-1-yl)propylthio]-3H-thieno[3,2-d]-pyrimidin-4-one] was run?
A: 34.6%

Q: And the inhibition at 0.1 µM (human 5-HT1A receptor)?
A: 41.9%

Q: `Nn1c(CCCCN2CCN(c3ccc4ccccc4n3)CC2)nc2sccc2c1=O` [Example 4-23, 3-amino-2-[4-(4-quinolin-2-ylpiperazin-1-yl)butyl]-3H-thieno[2,3-d]-pyrimidin-4-one] was tested. Which inhibition at 0.1 µM (human 5-HT3 receptor) did it give?
A: 79.3%

Q: What about the inhibition at 0.1 µM (human 5-HT1A receptor) of the same compound?
A: 97%

Q: With `Cn1c(CCCCN2CCN(c3ccc4ccccc4n3)CC2)nc2ccc(Br)cc2c1=O` [Example 7-26, 6-bromo-3-methyl-2-[4-(4-quinolin-2-ylpiperazin-1-yl)butyl]-3H-quinazolin-4-one] as the compound, how does the inhibition at 0.1 µM (human 5-HT3 receptor) read?
A: 71.6%

Q: What about the inhibition at 0.1 µM (human 5-HT1A receptor) of the same compound?
A: 85.2%

Q: `CCC1CCc2nc(CCCCN3CCN(c4ccc5ccccc5n4)CC3)n(N)c(=O)c2C1` (stereo not drawn) [Example 4-61, 3-amino-6-ethyl-2-[4-(4-quinolin-2-ylpiperazin-1-yl)butyl]-5,6,7,8-tetrahydro-3H-quinazolin-4-one] was tested. Which inhibition at 0.1 µM (human 5-HT3 receptor) did it give?
A: 88.7%

Q: And the inhibition at 0.1 µM (human 5-HT1A receptor)?
A: 96.8%

Q: Which results are given for `COc1ccc2ccnc(N3CCN4CCCCC4C3)c2c1` (stereo not drawn) [Production Example 81, 7-methoxy-1-octahydropyrido[1,2-a]pyrazin-2-ylisoquinoline]?
A: inhibition at 0.1 µM (human 5-HT3 receptor): 74.4%; inhibition at 0.1 µM (human 5-HT1A receptor): 95.8%

Q: For `c1cc2ccoc2c(N2CCN3CCC[C@@H]3C2)n1` [Production Example 110, 7-((8aR)-octahydropyrrolo[1,2-a]pyrazin-2-yl)furo[2,3-c]pyridine], which inhibition at 0.1 µM (human 5-HT3 receptor) is on record?
A: 97.9%

Q: And the inhibition at 0.1 µM (human 5-HT1A receptor)?
A: 98.9%

Q: For `Cc1sc2nc(CCCCN3CCN(c4ccc5ccccc5n4)CC3)[nH]c(=O)c2c1C` [Example 3-1, 5,6-dimethyl-2-[4-(4-quinolin-2-ylpiperazin-1-yl)butyl]-3H-thieno[2,3-d]pyrimidin-4-one], which inhibition at 0.1 µM (human 5-HT3 receptor) is on record?
A: 96.9%

Q: What about the inhibition at 0.1 µM (human 5-HT1A receptor) of the same compound?
A: 77%

Q: How did the inhibition at 0.1 µM (human 5-HT3 receptor) turn out when `Cc1sc2nc(SCCCN3CCN(c4nc5ccccc5n5cccc45)CC3)n(N)c(=O)c2c1C` [Example 1-5, 3-amino-5,6-dimethyl-2-[3-(4-pyrrolo[1,2-a]quinoxalin-4-ylpiperazin-1-yl)propylthio]-3H-thieno[2,3-d]pyrimidin-4-one] was run?
A: 82.6%

Q: And the inhibition at 0.1 µM (human 5-HT1A receptor)?
A: 85%

Q: Which inhibition at 0.1 µM (human 5-HT3 receptor) does the source give for `NN1Oc2c(sc3c2CCCCCC3)N=C1SCCCN1CCN(c2ccc3ccccc3n2)CC1` [Example 1-24, 3-amino-2-[3-(4-quinolin-2-ylpiperazin-1-yl)propylthio]-3,4,5,6,7,8,9,10-octahydro-4-oxa-11-thia-1,3-diaza-11H-cycloocta[a]-indene] here?
A: 79.6%

Q: And the inhibition at 0.1 µM (human 5-HT1A receptor)?
A: 95.7%

Q: With `COc1cc2nc(CCCCN3CCN(c4ccc5ccccc5n4)CC3)n(C)c(=O)c2cc1OC` [Example 7-22, 6,7-dimethoxy-3-methyl-2-[4-(4-quinolin-2-ylpiperazin-1-yl)butyl]-3H-quinazolin-4-one] as the compound, how does the inhibition at 0.1 µM (human 5-HT3 receptor) read?
A: 5.3%

Q: And the inhibition at 0.1 µM (human 5-HT1A receptor)?
A: 82.4%
